Laboratory results reported in patent publication US12162840B2, “Herbicidal compositions” (SYNGENTA PARTICIPATIONS AG, priority 2018, dated 2024).

Tests used:
Type in all cases: in vivo
[1] = test system: Lolium perenne (LOLPE); assay: B1 Post-emergence efficacy Test 1; details: post-emergence application, 1000 g/ha, evaluated after 13 days
Procedure, shortened: (§1)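 Seedlings grown 8 days in soil pots in a glasshouse (24/16 °C day/night, 14 h light, 65% humidity) were sprayed post-emergence at 1000 g/ha from acetone/water (50:50) with 0.5% Tween 20. Percent damage was scored 13 days later on a five-point scale (5=80-100% to 1=0-19%).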

[2] = test system: Solanum nigrum (SOLNI); assay: B1 Post-emergence efficacy Test 1; details: post-emergence application, 1000 g/ha, evaluated after 13 days
Procedure, shortened: as §1

[3] = test system: Setaria faberi (SETFA); assay: B1 Post-emergence efficacy Test 1; details: post-emergence application, 1000 g/ha, evaluated after 13 days
Procedure, shortened: as §1

[4] = test system: Amaranthus retoflexus (AMARE); assay: B1 Post-emergence efficacy Test 1; details: post-emergence application, 1000 g/ha, evaluated after 13 days
Procedure, shortened: as §1

[5] = test system: Ipomoea hederacea (IPOHE); assay: B1 Post-emergence efficacy Test 1; details: post-emergence application, 1000 g/ha, evaluated after 13 days
Procedure, shortened: as §1

[6] = test system: Echinochloa crus-galli (ECHCG); assay: B1 Post-emergence efficacy Test 1; details: post-emergence application, 1000 g/ha, evaluated after 13 days
Procedure, shortened: as §1

[7] = test system: warm season plant species; assay: B2 Post-emergence efficacy Test 2, warm season plant species; details: 15 days after application, 0-100 scale, 0=no damage, 100=total kill; for Herbicidal activity, ABUTH: Abutilon theophrasti; for Herbicidal activity, AMARE: Amaranthus retroflexus; for Herbicidal activity, BIDPI: Bidens pilosa; for Herbicidal activity, BRAPL: Brachiaria plantaginea; for Herbicidal activity, DIGSA: Digitaria sanguinalis; for Herbicidal activity, ECHCG: Echinochloa crus galli; for Herbicidal activity, ELEIN: Eleisine indica; for Herbicidal activity, EPHHL: Euphorbia hetrophylla; for Herbicidal activity, GLXMA: Glycine max; for Herbicidal activity, IPOHE: Ipomoea hederacea; for Herbicidal activity, ORYSA: Orysa sativa; for Herbicidal activity, PANMI: Panicum miliaceum; for Herbicidal activity, SETFA: Setaria faberi; for Herbicidal activity, SIDSP: Sida spinosa; for Herbicidal activity, SORVU: Sorghum bicolour; for Herbicidal activity, XANST: Xanthium strumarium; for Herbicidal activity, ZEAMX: Zea mays
Procedure, shortened: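 Plants at 12 days post-sowing were sprayed with active ingredient formulated in IF50 plus 0.2% v/v Genapol XO80, then grown in a glasshouse (24/18 °C or 20/16 °C day/night, 16 h light, 65% humidity). Damage scored 15 days after application on 0–100 scale (100 = total kill).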

Compound: Cc1nn(C)c(=O)c(-c2c(F)ccc(Cl)c2CCc2ccc(C#N)cc2)c1O [Compound 1.024]
- percentage damage caused to the plant, five point scale, LOLPE [1]: 5 (5=80-100%)
- percentage damage caused to the plant, five point scale, SOLNI [2]: 5 (5=80-100%)
- percentage damage caused to the plant, five point scale, SETFA [3]: 5 (5=80-100%)
- percentage damage caused to the plant, five point scale, AMARE [4]: 5 (5=80-100%)
- percentage damage caused to the plant, five point scale, IPOHE [5]: 5 (5=80-100%)
- percentage damage caused to the plant, five point scale, ECHCG [6]: 5 (5=80-100%)
- Herbicidal activity, ABUTH ([7]; 15 g/Ha): 90
- Herbicidal activity, ABUTH ([7]; 30 g/Ha): 90
- Herbicidal activity, ABUTH ([7]; 60 g/Ha): 100
- Herbicidal activity, ABUTH ([7]; 125 g/Ha): 100
- Herbicidal activity, ABUTH ([7]; 250 g/Ha): 100
- Herbicidal activity, ABUTH ([7]; 500 g/Ha): 100
- Herbicidal activity, AMARE ([7]; 15 g/Ha): 80
- Herbicidal activity, AMARE ([7]; 30 g/Ha): 90
- Herbicidal activity, AMARE ([7]; 60 g/Ha): 90
- Herbicidal activity, AMARE ([7]; 125 g/Ha): 100
- Herbicidal activity, AMARE ([7]; 250 g/Ha): 100
- Herbicidal activity, AMARE ([7]; 500 g/Ha): 100
- Herbicidal activity, BIDPI ([7]; 15 g/Ha): 80
- Herbicidal activity, BIDPI ([7]; 30 g/Ha): 80
- Herbicidal activity, BIDPI ([7]; 60 g/Ha): 80
- Herbicidal activity, BIDPI ([7]; 125 g/Ha): 80
- Herbicidal activity, BIDPI ([7]; 250 g/Ha): 80
- Herbicidal activity, BIDPI ([7]; 500 g/Ha): 90
- Herbicidal activity, BRAPL ([7]; 15 g/Ha): 30
- Herbicidal activity, BRAPL ([7]; 30 g/Ha): 60
- Herbicidal activity, BRAPL ([7]; 60 g/Ha): 70
- Herbicidal activity, BRAPL ([7]; 125 g/Ha): 70
- Herbicidal activity, BRAPL ([7]; 250 g/Ha): 70
- Herbicidal activity, BRAPL ([7]; 500 g/Ha): 90
- Herbicidal activity, DIGSA ([7]; 15 g/Ha): 0
- Herbicidal activity, DIGSA ([7]; 30 g/Ha): 20
- Herbicidal activity, DIGSA ([7]; 60 g/Ha): 40
- Herbicidal activity, DIGSA ([7]; 125 g/Ha): 80
- Herbicidal activity, DIGSA ([7]; 250 g/Ha): 90
- Herbicidal activity, DIGSA ([7]; 500 g/Ha): 90
- Herbicidal activity, ECHCG ([7]; 15 g/Ha): 70
- Herbicidal activity, ECHCG ([7]; 30 g/Ha): 80
- Herbicidal activity, ECHCG ([7]; 60 g/Ha): 80
- Herbicidal activity, ECHCG ([7]; 125 g/Ha): 90
- Herbicidal activity, ECHCG ([7]; 250 g/Ha): 90
- Herbicidal activity, ECHCG ([7]; 500 g/Ha): 100
- Herbicidal activity, ELEIN ([7]; 15 g/Ha): 0
- Herbicidal activity, ELEIN ([7]; 30 g/Ha): 40
- Herbicidal activity, ELEIN ([7]; 60 g/Ha): 40
- Herbicidal activity, ELEIN ([7]; 125 g/Ha): 60
- Herbicidal activity, ELEIN ([7]; 250 g/Ha): 80
- Herbicidal activity, ELEIN ([7]; 500 g/Ha): 80
- Herbicidal activity, EPHHL ([7]; 15 g/Ha): 70
- Herbicidal activity, EPHHL ([7]; 30 g/Ha): 90
- Herbicidal activity, EPHHL ([7]; 60 g/Ha): 90
- Herbicidal activity, EPHHL ([7]; 125 g/Ha): 90
- Herbicidal activity, EPHHL ([7]; 250 g/Ha): 100
- Herbicidal activity, EPHHL ([7]; 500 g/Ha): 100
- Herbicidal activity, GLXMA ([7]; 15 g/Ha): 70
- Herbicidal activity, GLXMA ([7]; 30 g/Ha): 80
- Herbicidal activity, GLXMA ([7]; 60 g/Ha): 90
- Herbicidal activity, GLXMA ([7]; 125 g/Ha): 90
- Herbicidal activity, GLXMA ([7]; 250 g/Ha): 100
- Herbicidal activity, GLXMA ([7]; 500 g/Ha): 100
- Herbicidal activity, IPOHE ([7]; 30 g/Ha): 100
- Herbicidal activity, IPOHE ([7]; 60 g/Ha): 100
- Herbicidal activity, IPOHE ([7]; 125 g/Ha): 100
- Herbicidal activity, IPOHE ([7]; 250 g/Ha): 100
- Herbicidal activity, IPOHE ([7]; 500 g/Ha): 100
- Herbicidal activity, ORYSA ([7]; 15 g/Ha): 0
- Herbicidal activity, ORYSA ([7]; 30 g/Ha): 0
- Herbicidal activity, ORYSA ([7]; 60 g/Ha): 0
- Herbicidal activity, ORYSA ([7]; 125 g/Ha): 0
- Herbicidal activity, ORYSA ([7]; 250 g/Ha): 20
- Herbicidal activity, ORYSA ([7]; 500 g/Ha): 40
- Herbicidal activity, PANMI ([7]; 15 g/Ha): 0
- Herbicidal activity, PANMI ([7]; 30 g/Ha): 70
- Herbicidal activity, PANMI ([7]; 60 g/Ha): 80
- Herbicidal activity, PANMI ([7]; 125 g/Ha): 90
- Herbicidal activity, PANMI ([7]; 250 g/Ha): 90
- Herbicidal activity, PANMI ([7]; 500 g/Ha): 100
- Herbicidal activity, SETFA ([7]; 15 g/Ha): 20
- Herbicidal activity, SETFA ([7]; 30 g/Ha): 70
- Herbicidal activity, SETFA ([7]; 60 g/Ha): 80
- Herbicidal activity, SETFA ([7]; 125 g/Ha): 90
- Herbicidal activity, SETFA ([7]; 250 g/Ha): 90
- Herbicidal activity, SETFA ([7]; 500 g/Ha): 100
- Herbicidal activity, SIDSP ([7]; 15 g/Ha): 80
- Herbicidal activity, SIDSP ([7]; 30 g/Ha): 90
- Herbicidal activity, SIDSP ([7]; 60 g/Ha): 90
- Herbicidal activity, SIDSP ([7]; 125 g/Ha): 100
- Herbicidal activity, SIDSP ([7]; 250 g/Ha): 100
- Herbicidal activity, SIDSP ([7]; 500 g/Ha): 100
- Herbicidal activity, SORVU ([7]; 15 g/Ha): 0
- Herbicidal activity, SORVU ([7]; 30 g/Ha): 10
- Herbicidal activity, SORVU ([7]; 60 g/Ha): 70
- Herbicidal activity, SORVU ([7]; 125 g/Ha): 80
- Herbicidal activity, SORVU ([7]; 250 g/Ha): 90
- Herbicidal activity, SORVU ([7]; 500 g/Ha): 100
- Herbicidal activity, XANST ([7]; 60 g/Ha): 80
- Herbicidal activity, XANST ([7]; 125 g/Ha): 80
- Herbicidal activity, XANST ([7]; 500 g/Ha): 100
- Herbicidal activity, ZEAMX ([7]; 15 g/Ha): 0
- Herbicidal activity, ZEAMX ([7]; 30 g/Ha): 10
- Herbicidal activity, ZEAMX ([7]; 60 g/Ha): 20
- Herbicidal activity, ZEAMX ([7]; 125 g/Ha): 40
- Herbicidal activity, ZEAMX ([7]; 250 g/Ha): 70
- Herbicidal activity, ZEAMX ([7]; 500 g/Ha): 100
